# Reference: US20060258582A1, “Method of treating myelodysplastic syndromes” (Scios, Inc., priority 2004, published 2006)
# Columns and labels:
# MDS CD34+ progenitors = experiment: methylcellulose clonogenic assay, MDS CD34+ progenitors; type: cell-based, human; conditions: for erythroid (BFU-E) and myeloid (CFU-GM) colony formation in MDS CD34+ bone marrow cells: in vitro, methylcellulose
# Procedure: MDS BM-derived CD34+ cells from 19 patients with MDS (Table 5) were cultured in methylcellulose in the presence and absence of increasing concentrations of compound 57. Results are expressed as means+/−SEM of 19 independent experiments.
# (A) Total colony numbers of (A) Blast Forming unit-erythroid (BFU-E) and (B) Colony forming unit-Granulocytic Macrophage (CFU-GM) before (control) and after compound 57 treatment (100 nM) of 19 patients with MDS (Table 5).
# (§1) All participants in the study signed informed consent, approved by the institutional review board of UT Southwestern and Dallas VA Medical Center. Hematopoietic progenitor colony formation was determined by clonogenic assays in methylcellulose, as detailed in previous studies. A total of 1×10^4 isolated CD34+ progenitor cells in 0.4 ml IMDM+2% FBS were resuspended in 4 ml MethoCult® (Stem Cell Technologies) and vortexed vigorously. The CD34+ cell:methylcellulose mixture was dispensed into 35 mm culture dishes (1×10^3 cells/35 mm plate) using sterile 3 cc syringe with attached sterile 16-gauge blunt-end needle. Cell cultures were incubated at 37° C., 5% CO2 in air and >95% humidity for 14-16 days. Granulocyte/macrophage colony-forming (CFU-GM) units and erythroid burst forming units (BFU-E) from different samples were scored on day 14 of culture.
# p38α = p38α (Homo sapiens, UniProt Q16539); experiment: direct enzymatic assay for inhibition of p38α; type: biochemical; conditions: direct enzymatic assays
# Procedure: (§2) The p38α MAPK inhibitor compound 57 was synthesized by Medicinal Chemistry (Scios, Inc., Fremont, Calif.). compound 57 has an IC50 of 9 nM for inhibition of p38α based on direct enzymatic assays, about 10-fold selectivity for p38α over p38β, and at least 2000-fold selectivity for p38α over a panel of 20 other kinases, including other MAPKs.
# p38β = p38β (Homo sapiens, UniProt Q15759); experiment: selectivity for p38α over p38β; type: biochemical
# Procedure: as §2
# [1] = test system: LPS-induced TNFα secretion in whole human blood; experiment: cell based assay, LPS-induced TNFα secretion in whole human blood; conditions: read-out: IC50 for inhibition of LPS-induced TNFα secretion
# Procedure: Other in vitro assays can assess the production of TNF-α as a correlation to p38 MAP kinase activity. One such example is a Human Whole Blood Assay. In this assay, venous blood is collected from, e.g., healthy male volunteers into a heparinized syringe and is used within 2 hours of collection. Test compounds are dissolved in 100% DMSO and 1 μl aliquots of drug concentrations ranging from 0 to 1 mM are dispensed into quadruplicate wells of a 24-well microtiter plate (Nunclon Delta SI, Applied Scientific Co., San Francisco, Calif.). Whole blood is added at a volume of 1 ml/well and the mixture is incubated for 15 minutes with constant shaking (Titer Plate Shaker, Lab-Line Instruments, Inc., Melrose Park, Ill.) at a humidified atmosphere of 5% CO2 at 37° C. Whole blood is cultured either undiluted or at a final dilution of 1:10 with RPMI 1640 (Gibco 31800+NaHCO3, Life Technologies, Rockville, Md. and Scios, Inc., Sunnyvale, Calif.). At the end of the incubation period, 10 μl of LPS (E. coli 0111:B4, Sigma Chemical Co., St. Louis, Mo.) is added to each well to a final concentration of 1 or 0.1 μg/ml for undiluted or 1:10 diluted whole blood, respectively. The incubation is continued for an additional 2 hours. The reaction is stopped by placing the microtiter plates in an ice bath, and plasma or cell-free supernates are collected by centrifugation at 3000 rpm for 10 minutes at 4° C. […]
# normal CD34+ progenitors = experiment: methylcellulose clonogenic assay, cytokine-suppressed normal CD34+ progenitors; type: cell-based, human
# Procedure: Primary bone marrow derived CD34+ cells were cultured in methylcellulose in the presence and absence of 20 ng/ml TNFα and with the indicated concentrations of compound 57 (nM). BFU-E and CFU-GM colonies were scored on Day 14. Results are expressed as means+/−S.E.M. of three independent experiments.
# Primary bone marrow derived CD34+ cells were cultured in methylcellulose in the presence and absence of […] IFNγ and with the indicated concentrations of the p38α inhibitors (compound 57; nM) or compound 162. BFU-E and CFU-GM colonies were scored on Day 14. Results are expressed as means+/−S.E.M. of three independent experiments.
# as §1, with “Cell cultures were incubated at 37° C., 5% CO2 in air and >95% humidity for 14-16 days.” left out
# [2] = test system: TNFα secretion from BMMNC; experiment: basal and LPS-induced TNFα secretion from normal BMMNC, ELISA; type: cell-based; conditions: Homo sapiens, basal or LPS-induced normal BMMNC cultures, 24 h, read-out: IC50 for inhibition of TNFα secretion
# Procedure: BMMNC (1×10^6) from a normal healthy donor were cultured in the absence and presence of increasing concentrations of compound 57 for 24 hours without or with 10 ng/ml LPS. TNFα concentration in cell supernatants were determined by ELISA. Figure represents Mean+/−SD of three independent experiments.
# (§3) TNFα, IL-6, VEGF, and IFNγ concentrations of the cell culture supernatants were assayed using ELISA kits from BioSource International (Camarillo, Calif.). MCP-1, MMP-2 and MMP-9 concentrations were assayed using ELISA kits from R&D Systems.
# BMSC = experiment: cDNA microarray analysis of chemokines in TNFα- or IL-1β-stimulated BMSC; type: cell-based, human
# Source text: Details of microarray and data analysis have been described previously. The data was normalized using the maNorm function in array package of Bioconductor version 1.5.8. Differential expression values were expressed as the ratio of the median of background-subtracted fluorescence intensity of the experimental RNA to the median of background-subtracted fluorescence intensity of the control RNA. The total BMSC RNA was extracted from cells using Qiagen's RNeasy kit (Valencia, Calif.). Arrays were probed in quadruplicate for a total of 16 hybridizations: control versus TNFα (24 hours), TNFα versus compound 57+TNFα (24 hours), control versus IL-1β (24 hours), IL-1β versus compound 57+IL-1β (24 hours).
# IFNγ production = IFNγ production in IL-12 and IL-18-induced BMMNC, ELISA; type: cell-based; conditions: Homo sapiens, 24 hours, read-out: IC50 for block of IFNγ production
# Procedure: BMMNC (1×10^6) from a normal healthy donor were stimulated with IL-12, IL-18 or both in the presence or absence of increasing concentrations of compound 57 for 24 h. IFN-γ concentration in cell supernatants was determined by ELISA. Figure represents Mean+/−SD of three independent experiments.
# as §3
# IFNγ = experiment: induction of IFNγ by anti-CD3 antibody; type: cell-based; conditions: data not shown
# [3] = microarray ratio IL-1β versus compound 57+IL-1β, 24 hours
# [4] = microarray ratio TNFα versus compound 57+TNFα
# Sequence of p38α (Q16539 whole entry): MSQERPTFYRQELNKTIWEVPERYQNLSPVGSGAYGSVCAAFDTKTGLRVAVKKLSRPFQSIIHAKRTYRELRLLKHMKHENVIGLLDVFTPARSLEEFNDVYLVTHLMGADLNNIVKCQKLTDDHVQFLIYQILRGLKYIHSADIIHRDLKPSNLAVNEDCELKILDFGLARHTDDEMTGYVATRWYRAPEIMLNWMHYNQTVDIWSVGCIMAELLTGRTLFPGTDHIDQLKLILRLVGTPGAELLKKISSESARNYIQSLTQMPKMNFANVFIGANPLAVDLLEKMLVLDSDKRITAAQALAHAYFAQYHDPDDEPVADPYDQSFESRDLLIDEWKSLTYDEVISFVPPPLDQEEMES
# Sequence of p38β (Q15759 whole entry): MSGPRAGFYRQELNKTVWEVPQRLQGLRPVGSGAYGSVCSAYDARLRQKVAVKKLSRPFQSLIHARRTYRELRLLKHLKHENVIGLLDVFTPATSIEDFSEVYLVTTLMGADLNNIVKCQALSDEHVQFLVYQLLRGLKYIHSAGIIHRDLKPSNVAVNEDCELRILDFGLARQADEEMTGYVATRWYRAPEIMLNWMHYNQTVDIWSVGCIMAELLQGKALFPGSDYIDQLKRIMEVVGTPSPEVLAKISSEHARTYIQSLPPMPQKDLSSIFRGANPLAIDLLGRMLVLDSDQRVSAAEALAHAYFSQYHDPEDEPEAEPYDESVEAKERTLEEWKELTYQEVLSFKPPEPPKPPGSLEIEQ
smiles,measurement,setting,value
COc1cccc(-c2cc(=O)c3ccccc3o2)c1N [PD 98059],erythroid (BFU-E) and myeloid (CFU-GM) colony formation in MDS CD34+ bone marrow cells,MDS CD34+ progenitors,not observed
COc1cc2c(cc1C(=O)N1C[C@H](C)N(Cc3ccc(F)cc3)C[C@H]1C)c(C(=O)C(=O)N(C)C)cn2C [compound 57],IC50,p38α,9 nM
same,selectivity for p38α over p38β,p38β,about 10 fold
same,IC50,[1],1300 nM
same,increase in both BFU-E and CFU-GM colony numbers compared to those without compound,"normal CD34+ progenitors; TNFα-treated CD34+ progenitors, 50 nM compound",about 100%
same,increase in myeloid and erythroid colony numbers in MDS progenitors,MDS CD34+ progenitors; 20 nM-100 nM compound,2-3 fold
same,IC50,[2],50 nM
same,"CCL2 (MCP-1) differential expression, C57 + IL-1β",BMSC; [3],−1.4
same,"CCL7 (MCP3) differential expression, C57 + IL-1β",BMSC; [3],−1.5
same,"CXCL1 (GROα) differential expression, C57 + IL-1β",BMSC; [3],−1.6
same,"CXCL3 (GROγ) differential expression, C57 + IL-1β",BMSC; [3],1.3
same,"CXCL6 (GCP2) differential expression, C57 + IL-1β",BMSC; [3],−1.6
same,"CXCL10 (IP10) differential expression, C57 + IL-1β",BMSC; [3],1.0
same,"CXCL11 (ITAC) differential expression, C57 + IL-1β",BMSC; [3],0.0
same,"CXCL16 (SR-PSOX) differential expression, C57 + IL-1β",BMSC; [3],−4.2
same,"CCL2 (MCP-1) differential expression, C57 + TNFα (24 h)",BMSC; [4],−1.7
same,"CCL7 (MCP3) differential expression, C57 + TNFα (24 h)",BMSC; [4],−2.2
same,"CXCL1 (GROα) differential expression, C57 + TNFα (24 h)",BMSC; [4],−2.9
same,"CXCL3 (GROγ) differential expression, C57 + TNFα (24 h)",BMSC; [4],−1.6
same,"CXCL6 (GCP2) differential expression, C57 + TNFα (24 h)",BMSC; [4],−5.3
same,"CXCL10 (IP10) differential expression, C57 + TNFα (24 h)",BMSC; [4],−2.9
same,"CXCL11 (ITAC) differential expression, C57 + TNFα (24 h)",BMSC; [4],−1.4
same,"CXCL16 (SR-PSOX) differential expression, C57 + TNFα (24 h)",BMSC; [4],1.4
same,IC50,IFNγ production,< 50 nM
same,induction of IFNγ by anti-CD3 antibody,IFNγ,not inhibited
CCc1nc(-c2ccc(OC)cc2)[nH]c1-c1ccncc1 [SB 202474],erythroid (BFU-E) and myeloid (CFU-GM) colony formation in MDS CD34+ bone marrow cells,MDS CD34+ progenitors,not observed
CN(C)C(=O)C(=O)c1c[nH]c2cc(Cl)c(C(=O)N3CCC(Cc4ccc(F)cc4)CC3)cc12 [compound 162],IFNγ-induced suppression of erythroid and myeloid colony formation,"normal CD34+ progenitors; normal CD34+ progenitors, IFNγ, day 14",reverses
